Measurements: patent US9845323B2, “2-(1,3,4-oxadiazol-2-yl)-7-oxo-1,6-diazabicyclo[3.2.1 ]octane derivatives and their use as antibacterial agents” (WOCKHARDT LIMITED, priority 2014, dated 2017)
pIC50: −log10 of the molar value. Values after ≈ are worked out from the molar mass of the structure shown.

How the values were obtained:
[1] = tested on: K. Pneomoniae S48 (NDM, SHV, TEM); test: Agar dilution MIC (CLSI), compound alone; type: cell-based, K. pneumoniae; settings: Klebsiella pneumoniae
Experimental: (§1) The biological activity of representative compounds according to the invention against various bacterial strains was investigated. In a typical study, overnight grown bacterial cultures were diluted appropriately and inoculated on the agar media containing doubling dilutions of the test compounds. Observations for growth or no growth was performed after 16-20 hours of incubation at 35±2° C. in the ambient air. The overall procedure was performed as per Clinical and Laboratory Standards Institute (CLSI) recommendations, (Clinical and Laboratory Standards Institute (CLSI), Performance Standards for Antimicrobial Susceptibility Testing, 20th Informational Supplement, M 07-A9, Volume 32, No. 2, 2012). Molten Mueller Hinton Agar (BD, USA) containing serial dilutions of each antibacterial agent were poured on to the plates and allowed to solidify. Appropriate suspensions from the freshly grown cultures were prepared in normal saline so that about 10^4 CFU/spot of the organism was delivered on to the drug containing agar plates using automated multipoint inoculator (Mast, UK). The plates were incubated in Biochemical oxygen demand (BOD) incubator at 37° C. for 18 hours and then examined for growth.

[2] = tested on: Multi Drug Resistant (MDR) Gram-negative bacterial strains; test: Antibacterial activity alone; type: cell-based; settings: compounds used alone; compared with standards (imipenem, ceftazidime) or avibactam
Experimental: as §1

[3] = tested on: K. pneumoniae H521 (KPC, SHV, TEM); test: Agar dilution MIC (CLSI), compound alone; type: cell-based
Experimental: as §1

E. coli NCTC 13352 = test: Agar dilution MIC (CLSI), compound alone; type: cell-based; settings: Escherichia coli, NCTC13352
Experimental: as §1

E. cloacae M 20 = test: Agar dilution MIC (CLSI), compound alone; type: cell-based; settings: Enterobacter cloacae, M20
Experimental: as §1

P. aeruginosa ATCC 27853 = test: Agar dilution MIC (CLSI), compound alone; type: cell-based; settings: Pseudomonas aeruginosa, ATCC27853
Experimental: as §1

K. pneumoniae S 21 = test: Agar dilution MIC (CLSI), compound alone; type: cell-based; settings: Klebsiella pneumoniae, S21
Experimental: as §1

K. pneumoniae H 525 = test: Agar dilution MIC (CLSI), compound alone; type: cell-based; settings: Klebsiella pneumoniae, H525
Experimental: as §1

[4] = tested on: E. coli NCTC 13353 (CTX-M15, OXA-1); test: Agar dilution MIC (CLSI), compound alone; type: cell-based
Experimental: as §1

E. coli 7 MP = test: Agar dilution MIC (CLSI), compound alone; type: cell-based; settings: Escherichia coli
Experimental: as §1

P. aeruginosa 2779 = test: Agar dilution MIC (CLSI), compound alone; type: cell-based; settings: Pseudomonas aeruginosa
Experimental: as §1

K. pneumoniae B 77 = test: Agar dilution MIC (CLSI), compound alone; type: cell-based; settings: Klebsiella pneumoniae, B77
Experimental: as §1

E. coli NCTC 13351 = test: Agar dilution MIC (CLSI), compound alone; type: cell-based; settings: Escherichia coli, NCTC13351
Experimental: as §1

E. coli M 50 = test: Agar dilution MIC (CLSI), compound alone; type: cell-based; settings: Escherichia coli, M50
Experimental: as §1

P. aeruginosa R 20 = test: Agar dilution MIC (CLSI), compound alone; type: cell-based; settings: Pseudomonas aeruginosa, R20
Experimental: as §1

E. coli M 49 = test: Agar dilution MIC (CLSI), compound alone; type: cell-based; settings: Escherichia coli, M49
Experimental: as §1

P. aeruginosa PAO1 = test: Agar dilution MIC (CLSI), compound alone; type: cell-based; settings: Pseudomonas aeruginosa
Experimental: as §1

C. frundaii 58 MP = test: Agar dilution MIC (CLSI), compound alone; type: cell-based
Experimental: as §1

[5] = target: Class A beta-lactamase SHV 18 (K. pneumoniae ATCC 700603) (Klebsiella pneumoniae, UniProt P0AD64); test: Beta-lactamase enzyme inhibition (Nitrocefin, crude enzyme); type: biochemical; settings: read-out: Beta-lactamase enzyme inhibition IC50, K. pneumoniae ATCC 700603 (SHV 18), Nitrocefin 100 μM
Experimental: (§2) Absorbance was measured at 485 nm by UV-spectrophotometer. The IC50 was calculated by plotting absorbance against concentration through Sigmoidal dose response curve using Graph Pad software.

[6] = tested on: Class C beta-lactamase CMY/DHA (E. coli M50); test: as above; type: biochemical; settings: Nitrocefin 100 μM
Experimental: as §2

[7] = target: T1, Class D beta-lactamase OXA 23 (A baumannii NCTC 13301) (Acinetobacter baumannii, UniProt Q9L4P2); test: as above; type: biochemical; settings: A baumannii NCTC 13301 (OXA 23), Nitrocefin 100 μM
T1 construct: preincubated mixture of crude enzyme and the compounds; endogenous in cells; host or cells: A. baumannii NCTC 13301 (crude enzyme preparation)
Experimental: as §2

Sequence of Class A beta-lactamase SHV 18 (K. pneumoniae ATCC 700603) (P0AD64 22-286 limits assumed): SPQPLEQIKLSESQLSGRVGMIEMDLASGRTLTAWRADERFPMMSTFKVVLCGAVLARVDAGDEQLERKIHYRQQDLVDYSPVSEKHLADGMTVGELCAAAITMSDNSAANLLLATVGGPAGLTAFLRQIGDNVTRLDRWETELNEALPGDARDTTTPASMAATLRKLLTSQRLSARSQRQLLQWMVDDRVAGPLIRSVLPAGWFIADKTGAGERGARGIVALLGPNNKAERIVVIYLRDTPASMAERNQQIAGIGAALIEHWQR
T1 sequence (Q9L4P2 18-273): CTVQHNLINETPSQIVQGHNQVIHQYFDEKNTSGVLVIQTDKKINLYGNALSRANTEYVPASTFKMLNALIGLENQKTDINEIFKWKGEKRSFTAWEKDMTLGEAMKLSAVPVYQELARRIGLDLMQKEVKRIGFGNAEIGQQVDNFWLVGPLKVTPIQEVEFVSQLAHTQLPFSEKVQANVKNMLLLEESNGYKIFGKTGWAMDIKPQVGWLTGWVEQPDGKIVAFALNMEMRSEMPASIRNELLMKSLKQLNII

With `O=C1N2C[C@@H](CC[C@H]2c2nnc(Cc3ccccc3)o2)N1OS(=O)(=O)O` [Example 5, (2S,5R)-sulfuric acid mono-[2-(5-benzyl-[1,3,4]-oxadiazol-2-yl)-7-oxo-1,6-diaza-bicyclo[3.2.1]oct-6-yl] ester] the MIC [1] was 8 µg/mL (≈ 21 µM), the “Antibacterial activity (MIC values) in words” value [2] was “exhibited antibacterial activity in comparison to avibactam” and the MIC ([3]; K. pneumoniae H 521, Table 3) was 32 µg/mL (≈ 84.1 µM). The MIC ([3]; Klebsiella pneumoniae) was 32 µg/mL (≈ 84.1 µM), the MIC (E. coli NCTC 13352) was 16 µg/mL (≈ 42.1 µM) and the MIC (E. cloacae M 20) was > 32 µg/mL. For the same compound, the MIC (P. aeruginosa ATCC 27853) was > 32 µg/mL, the MIC (K. pneumoniae S 21) was > 32 µg/mL and the MIC (K. pneumoniae H 525) was 16 µg/mL (≈ 42.1 µM). For the same compound, the MIC ([4]; E. coli NCTC 13353, Table 3) was 8 µg/mL (≈ 21 µM), the MIC ([4]; Escherichia coli, NCTC13353) was 8 µg/mL (≈ 21 µM) and the MIC (E. coli 7 MP) was 32 µg/mL (≈ 84.1 µM). The MIC (P. aeruginosa 2779) was > 32 µg/mL, the MIC (K. pneumoniae B 77) was > 32 µg/mL and the MIC (E. coli NCTC 13351) was 16 µg/mL (≈ 42.1 µM). The MIC (E. coli M 50) was 16 µg/mL (≈ 42.1 µM), the MIC (P. aeruginosa R 20) was > 32 µg/mL and the MIC (E. coli M 49) was > 32 µg/mL. The MIC (P. aeruginosa PAO1) was > 32 µg/mL, the MIC (C. frundaii 58 MP) was > 32 µg/mL and the pIC50 [5] was 7.48. For the same compound, the pIC50 [6] was 8.22 and the pIC50 [7] was 6.55.
